# Test results from ChEMBL document CHEMBL1201862, “PubChem BioAssay data set” (2004).
# Activity calls are given as the source filed them.
# Key:
# [1] = miR-122 activators in hepatoma reporter cells, dose response, cell-based, Huh7 psiCHECK-miR122, Renilla luciferase, cherry-picked (AID 651956); assay type: functional;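 note: huh7 hepatoma cells stably carrying a psiCHECK-2 miR-122 sensor plasmid; renilla luciferase signal reporting endogenous miR-122 activity after 48 h compound exposure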
# [2] = HEK293T cytotoxicity, dose response, cytotoxicity control for miR-122 modulator project, cell-based, activator set, cherry-pick (AID 720690); assay type: functional;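 note: HEK293T human cells scored for general mammalian cytotoxicity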
# [3] = cells; assay type: functional, cell-based
# [4] = target: T1, Trace amine-associated receptor 1 (Homo sapiens, UniProt Q96RJ0); experiment: Fluorescence-based cell-based high throughput dose response assay to identify agonists of the human trace amine associated receptor 1 (TAAR1).; assay type: functional
# T1 sequence (Q96RJ0 whole entry): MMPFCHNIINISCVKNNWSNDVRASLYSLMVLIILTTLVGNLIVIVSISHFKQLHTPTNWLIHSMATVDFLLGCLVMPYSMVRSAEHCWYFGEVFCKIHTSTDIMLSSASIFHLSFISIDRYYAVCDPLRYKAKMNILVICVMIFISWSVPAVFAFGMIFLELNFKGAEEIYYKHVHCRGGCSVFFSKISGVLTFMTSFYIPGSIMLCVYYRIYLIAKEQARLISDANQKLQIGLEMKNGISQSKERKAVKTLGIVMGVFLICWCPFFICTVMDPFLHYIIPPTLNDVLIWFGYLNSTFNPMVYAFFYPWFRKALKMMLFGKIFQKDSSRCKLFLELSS
# [5] = target: T1, Trace amine-associated receptor 1; experiment: Counterscreen for agonists of the human trace amine associated receptor 1 (hTAAR1): Fluorescence-based cell-based high throughput dose response assay to identify hTAAR1 agonist that also desensitize TAAR1 receptor response.; assay type: functional
# [6] = cells; assay type: functional, cell-based; remark: listed apart in the source
# [7] = inhibitors of HIV Env-driven cell fusion, dose response, cherry-pick (AID 652057); assay type: functional, cell-based
# [8] = CEM21 lymphoblast cell cytotoxicity, dose response, cytotoxicity control for viral fusion inhibitor project, CellTiter-Glo luminescence, cherry-picked (AID 652042); assay type: functional, cell-based;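 note: potency for signal decrease meaning cytotoxicity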
# [9] = ZM109 Env clade C HIV-1 fusion inhibitors, dose response, HeLa effector, CEM target cells, luciferase, cherry-pick (AID 652058); assay type: functional, cell-based
# [10] = inhibitors of clade B AD8 Env fusion, dose response, cell-based, cherry-pick (AID 652062); assay type: functional;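 note: luciferase signal from cell-cell fusion driven by HIV-1 clade B AD8 Env; potency is for inhibitors of fusion seen as a drop in luminescence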
# [11] = T. cruzi growth inhibition in host cells, dose response, cell-based, plate reader, dry powder, set 2 (AID 652275); assay type: functional
# [12] = Shn3 3'UTR reporter inhibitors, dose response, cell-based, Clone20 osteoblasts, firefly luciferase, cherry-picked (AID 624132); assay type: functional;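 note: firefly luciferase luminescence from reporter carrying the Shn3 3'UTR in osteoblasts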
# [13] = HepG2 cell cytotoxicity, dose response, cytotoxicity control for Shn3 inhibitor project, CellTiter-Glo, cherry-picked (AID 624134); assay type: functional, cell-based
# [14] = control 3'UTR Renilla luciferase suppression, dose response, counter-screen for Shn3 inhibitor project, cell-based, Clone20-Shn3RL, cherry-picked (AID 624133); assay type: functional
# [15] = reduction of Shn3 3'UTR firefly luciferase signal, dose response, Schnurri-3 inhibitor project, cell-based, Clone20 osteoblasts, cherry-pick, set 2 (AID 720490); assay type: functional;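 note: actives lower the luminescence signal as inhibitors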
# [16] = inhibitors of control Renilla luciferase reporter, dose response, counter-screen for Shn3 3'UTR targeting project, Clone20-Shn3RL cells, dual-Glo, cherry-pick, set 2 (AID 720724); assay type: functional, cell-based; settings: Dual-Go Shn3RL
# [17] = HEK293T cytotoxicity, dose response, cytotoxicity control for miR-122 modulator project, cell-based, inhibitor set, cherry-pick, set 2 (AID 720697); assay type: functional
# [18] = T. cruzi intracellular amastigote growth inhibition, dose response, imaging, CA-I/72 strain, bovine embryo skeletal muscle, dry powder (AID 651885); assay type: functional, cell-based
# [19] = Counterscreen for […] of the human trace amine associated receptor 1 (TAAR1): Fluorescence-based cell-based high throughput dose response assay to identify nonselective Ga16 agonists.; assay type: functional
# [20] = target: T1, Trace amine-associated receptor 1; experiment: Fluorescence-based cell-based high throughput dose response assay to identify antagonists of the human trace amine associated receptor 1 (TAAR1).; assay type: functional
# [21] = Counterscreen for antagonists of the human trace amine associated receptor 1 (hTAAR1): Fluorescence-based cell-based high throughput dose response assay to identify nonselective Ga16 antagonists.; assay type: functional
# [22] = target: T1, Trace amine-associated receptor 1; experiment: Counterscreen for antagonists of the human trace amine associated receptor 1 (hTAAR1): Fluorescence-based cell-based high throughput dose response assay to identify TAAR1 Agonists.; assay type: functional
# [23] = target: T2, Replicative DNA helicase DnaB (Mycobacterium tuberculosis, UniProt P9WMR3); experiment: DnaB intein splicing inhibitors, dose response, biochemical, cell-free fluorescence (AID 449749); assay type: functional
# T2 sequence (P9WMR3 whole entry): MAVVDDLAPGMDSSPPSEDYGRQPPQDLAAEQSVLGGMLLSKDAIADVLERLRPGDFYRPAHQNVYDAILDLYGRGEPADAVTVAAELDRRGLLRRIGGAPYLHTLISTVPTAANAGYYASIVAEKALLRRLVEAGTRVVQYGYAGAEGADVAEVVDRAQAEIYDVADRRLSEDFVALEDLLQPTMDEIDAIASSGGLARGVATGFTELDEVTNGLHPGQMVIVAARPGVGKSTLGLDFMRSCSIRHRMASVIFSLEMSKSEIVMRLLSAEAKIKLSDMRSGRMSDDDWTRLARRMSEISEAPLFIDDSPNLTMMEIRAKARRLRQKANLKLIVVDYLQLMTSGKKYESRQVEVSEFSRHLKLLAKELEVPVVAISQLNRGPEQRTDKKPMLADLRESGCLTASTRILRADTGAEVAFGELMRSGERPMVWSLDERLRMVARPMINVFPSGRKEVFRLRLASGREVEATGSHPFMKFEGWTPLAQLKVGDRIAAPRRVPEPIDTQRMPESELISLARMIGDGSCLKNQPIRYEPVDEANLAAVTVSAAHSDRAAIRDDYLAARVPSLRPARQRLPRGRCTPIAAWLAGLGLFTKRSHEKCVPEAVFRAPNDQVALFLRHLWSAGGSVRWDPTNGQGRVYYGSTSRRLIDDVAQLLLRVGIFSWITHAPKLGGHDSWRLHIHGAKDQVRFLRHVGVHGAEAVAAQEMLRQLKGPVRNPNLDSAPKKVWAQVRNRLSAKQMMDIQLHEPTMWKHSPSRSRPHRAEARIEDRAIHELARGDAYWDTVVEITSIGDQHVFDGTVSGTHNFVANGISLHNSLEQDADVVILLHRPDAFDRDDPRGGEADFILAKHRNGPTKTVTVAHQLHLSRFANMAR
# [24] = target: T3, Apoptotic protease-activating factor 1 (Homo sapiens, UniProt O14727); assay type: functional
# T3 sequence (O14727 whole entry): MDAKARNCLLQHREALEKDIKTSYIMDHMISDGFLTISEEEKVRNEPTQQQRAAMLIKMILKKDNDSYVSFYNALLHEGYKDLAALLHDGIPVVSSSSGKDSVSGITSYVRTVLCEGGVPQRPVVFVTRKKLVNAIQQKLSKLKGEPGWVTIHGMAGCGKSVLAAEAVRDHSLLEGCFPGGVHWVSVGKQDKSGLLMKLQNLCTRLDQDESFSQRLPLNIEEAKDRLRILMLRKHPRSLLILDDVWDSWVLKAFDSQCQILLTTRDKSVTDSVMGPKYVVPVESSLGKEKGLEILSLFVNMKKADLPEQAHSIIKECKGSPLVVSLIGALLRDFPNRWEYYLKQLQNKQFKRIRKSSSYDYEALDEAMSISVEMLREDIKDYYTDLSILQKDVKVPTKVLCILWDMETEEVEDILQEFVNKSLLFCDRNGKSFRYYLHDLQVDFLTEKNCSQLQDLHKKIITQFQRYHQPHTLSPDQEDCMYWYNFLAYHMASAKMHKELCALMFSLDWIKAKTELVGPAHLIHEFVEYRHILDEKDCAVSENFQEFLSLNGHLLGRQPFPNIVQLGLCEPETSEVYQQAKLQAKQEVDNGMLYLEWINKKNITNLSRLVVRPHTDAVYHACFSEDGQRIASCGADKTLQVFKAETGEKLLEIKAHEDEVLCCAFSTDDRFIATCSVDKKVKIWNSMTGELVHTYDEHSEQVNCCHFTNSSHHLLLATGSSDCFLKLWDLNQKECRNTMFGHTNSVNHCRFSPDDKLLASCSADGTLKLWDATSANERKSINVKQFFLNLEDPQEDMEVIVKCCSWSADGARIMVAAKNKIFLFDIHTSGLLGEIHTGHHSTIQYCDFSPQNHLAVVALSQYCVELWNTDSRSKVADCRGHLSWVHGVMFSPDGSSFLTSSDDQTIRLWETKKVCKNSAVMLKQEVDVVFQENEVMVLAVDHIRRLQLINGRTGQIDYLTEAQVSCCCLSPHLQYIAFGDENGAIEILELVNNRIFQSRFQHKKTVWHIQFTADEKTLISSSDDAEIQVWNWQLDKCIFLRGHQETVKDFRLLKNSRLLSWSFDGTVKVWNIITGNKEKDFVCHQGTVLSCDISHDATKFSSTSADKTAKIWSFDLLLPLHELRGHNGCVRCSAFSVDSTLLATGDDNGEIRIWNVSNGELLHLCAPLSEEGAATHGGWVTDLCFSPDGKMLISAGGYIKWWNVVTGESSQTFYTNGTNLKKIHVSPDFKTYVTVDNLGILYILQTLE
# [25] = target: T4, Protein RecA (Mycobacterium tuberculosis, UniProt P9WHJ3); experiment: Fluorescence Cell-Free Homogeneous Dose Retest to Identify Inhibitors of RecA-Intein Splicing Activity. [Related pubchem assays (depositor defined):AID2097, AID2223, AID489010, AID492950]; assay type: functional
# T4 sequence (P9WHJ3 whole entry): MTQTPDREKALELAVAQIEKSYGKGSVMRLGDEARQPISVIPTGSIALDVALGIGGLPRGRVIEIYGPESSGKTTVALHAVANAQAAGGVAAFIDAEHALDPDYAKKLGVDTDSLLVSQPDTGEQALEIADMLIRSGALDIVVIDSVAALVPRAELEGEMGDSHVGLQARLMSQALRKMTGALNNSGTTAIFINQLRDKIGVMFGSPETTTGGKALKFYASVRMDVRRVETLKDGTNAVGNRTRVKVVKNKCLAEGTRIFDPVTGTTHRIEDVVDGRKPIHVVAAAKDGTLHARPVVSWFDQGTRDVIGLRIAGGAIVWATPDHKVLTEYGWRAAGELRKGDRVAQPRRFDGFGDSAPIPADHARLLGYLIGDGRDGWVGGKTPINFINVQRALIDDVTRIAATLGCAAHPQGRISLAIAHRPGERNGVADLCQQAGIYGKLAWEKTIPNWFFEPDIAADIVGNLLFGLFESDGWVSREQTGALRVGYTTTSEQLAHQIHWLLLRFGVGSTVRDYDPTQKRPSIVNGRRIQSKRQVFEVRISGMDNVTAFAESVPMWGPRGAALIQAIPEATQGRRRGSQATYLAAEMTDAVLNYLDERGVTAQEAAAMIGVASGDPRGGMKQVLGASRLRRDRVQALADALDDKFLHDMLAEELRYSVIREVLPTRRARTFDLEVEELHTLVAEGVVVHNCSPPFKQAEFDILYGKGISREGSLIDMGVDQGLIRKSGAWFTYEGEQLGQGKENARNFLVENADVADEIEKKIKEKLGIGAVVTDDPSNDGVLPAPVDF
# [26] = target: Mitochondrial peptide methionine sulfoxide reductase (Bos taurus, UniProt P54149); assay type: functional;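 note: absorbance read-out, biochemical high-throughput dose-response screen for MsrA inhibitors, confirmatory; recombinant bovine MsrA coupled to E. coli TrxB with NADPH and selenocystamine; potency is for inhibitors of MsrA activity on DMSO substrate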
# Mitochondrial peptide methionine sulfoxide reductase, sequence (P54149 whole entry): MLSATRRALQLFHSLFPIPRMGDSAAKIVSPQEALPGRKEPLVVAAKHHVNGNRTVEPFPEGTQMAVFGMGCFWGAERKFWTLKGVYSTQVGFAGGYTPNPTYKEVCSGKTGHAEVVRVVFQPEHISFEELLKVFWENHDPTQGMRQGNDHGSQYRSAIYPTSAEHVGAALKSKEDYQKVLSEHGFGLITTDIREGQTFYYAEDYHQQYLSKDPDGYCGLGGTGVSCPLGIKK
# [27] = target: Tyrosyl-DNA phosphodiesterase 2 (Homo sapiens, UniProt O95551); experiment: human TDP2 enzyme inhibitors, dose response, biochemical, epi absorbance, IC50 (AID 743297)
# Tyrosyl-DNA phosphodiesterase 2, sequence (O95551 whole entry): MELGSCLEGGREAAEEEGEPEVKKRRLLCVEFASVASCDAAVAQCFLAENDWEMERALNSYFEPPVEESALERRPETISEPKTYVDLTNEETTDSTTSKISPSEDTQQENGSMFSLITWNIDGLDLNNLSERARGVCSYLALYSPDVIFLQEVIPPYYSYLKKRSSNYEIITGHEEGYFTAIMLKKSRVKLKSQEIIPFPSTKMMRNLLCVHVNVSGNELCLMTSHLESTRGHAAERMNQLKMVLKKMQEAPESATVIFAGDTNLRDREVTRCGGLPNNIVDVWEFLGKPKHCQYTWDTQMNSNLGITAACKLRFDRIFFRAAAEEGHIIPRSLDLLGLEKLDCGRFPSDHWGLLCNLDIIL
# [28] = cells; assay type: functional, cell-based; remark: listed apart in the source
# [29] = cells; assay type: functional, cell-based; remark: listed apart in the source
# [30] = HepG2 cell cytotoxicity, dose response, cytotoxicity control, ATP luminescence, cherry-pick, activator set 2 (AID 1053143); assay type: functional, cell-based
smiles,measurement,setting,value
C[C@@H]1CN([C@H](C)CO)S(=O)(=O)c2ccc(C#Cc3ccncc3)cc2O[C@@H]1CN(C)C(=O)Nc1ccc2c(c1)OCO2,AC50,[1],4.77 µM (active)
same,AC50,[2],29.8 µM (active)
CCC(C)(C)n1nnnc1C(c1ccc(O)cc1)N1CCc2ccccc2C1 (stereo not given),IC50,[3],> 29.9 µM (inactive)
same,EC50,[4],0.333 µM (active)
same,IC50,[5],1.26 µM (active)
same,EC50,[6],> 29.9 µM (inactive)
Cc1nc2ccc(NC(=O)c3ccc(Cl)c(S(=O)(=O)N(C)c4ccccc4)c3)cc2s1,AC50,[7],35.5 µM (active)
same,AC50,[8],58.6 µM (active)
same,AC50,[9],3.88 µM (active)
same,AC50,[10],3.19 µM (active)
CC(c1ccc(Cl)cc1)N1CC2(C1)CN(C(C)C)C(=O)c1cccc(NC(=O)c3ccncc3)c1O2 (stereo not given),AC50,[11],0.556 µM (active)
Cc1nc(NC(C)c2ccccc2)c2oc3ccccc3c2n1 (stereo not given),AC50,[12],3.06 µM (active)
same,AC50,[13],35.1 µM (active)
same,AC50,[14],24 µM (active)
same,AC50,[15],3.44 µM (active)
same,AC50,[16],46.5 µM (active)
CNC(=O)C[C@H]1CC[C@H]2[C@@H](COc3ccc(NC(=O)C4CC4)cc3C(=O)N2C)O1,AC50,[17],2.59 µM (active)
CC(C)N1C[C@H](C)[C@@H](CN(C)C(=O)OC(C)(C)C)Oc2c(C(=O)O)cccc2C1=O,IC50,[18],> 20 µM (inactive)
CCNC(=S)N/N=C/c1cc(C)n(-c2ccc(Cl)cc2)c1C,EC50,[19],> 29.9 µM (inactive)
same,IC50,[20],1.13 µM (active)
same,IC50,[21],> 29.9 µM (inactive)
same,EC50,[22],13.6 µM (inactive)
O=C(O)c1ccc(NC2=C(n3nnc4ccccc43)C(=O)c3ccccc3C2=O)cc1,AC50,[23],4.36 µM (active)
same,IC50,[24],7.8 µM (active)
same,EC50,[25],3 µM (active)
same,IC50,[26],11.6 µM (inactive)
same,IC50,[27],40.1 µM (inactive)
Nc1ccccc1NC(=O)c1ccccc1,EC50,[28],13.8 µM (active)
same,EC50,[29],> 350 µM (not active)
same,AC50,[30],17.5 µM (active)
